The values below come from publication PMC8765320, “Identification of a Proteasome-Targeting Arylsulfonamide with Potential for the Treatment of Chagas’ Disease” (Antimicrobial Agents and Chemotherapy, 2022).

Test [1] concerns L. donovani axenic amastigote. The test can be described thus: L. donovani axenic amastigote drug sensitivity assay. The test is classed as cell-based. The note with it: Leishmania donovani, weighted mean, n ≥ 3, read-out: Mean compound 1 EC50 ± SD. On the procedure: (§1) L. donovani promastigote ([35]), axenic amastigote ([25]), and T. brucei bloodstream form ([36]) drug sensitivity assays were carried out as previously described. HepG2 monolayers were washed twice in PBS, detached with 0.05% trypsin/EDTA, and then diluted with fully supplemented MEM growth medium. Cells were pelleted at 80 × g for 5 min and resuspended in fully supplemented growth medium. Cells were seeded into 96-well plates (5 × 10^4/well) and allowed to adhere prior to exposure to test compounds. Plates were incubated at 37°C in the presence of 5% CO2 for 72 h. After incubation, resazurin (20 μl of a 2.5-mg/ml^−1 stock solution) was added to each well, followed by incubation for a further 2 h prior to fluorescence being read as described above.

In test [2] the test system is T. brucei BSF. The test can be described thus: T. brucei bloodstream form drug sensitivity assay. The test is classed as cell-based. To be noted: Trypanosoma brucei, weighted mean, n ≥ 3, read-out: Mean compound 1 EC50 ± SD. As to the method: as §1
The test system of test [3] is HepG2 cells. The test can be described thus: HepG2 drug sensitivity assay (resazurin). The test is classed as cell-based. The note with it: Homo sapiens; Mammalian HepG2; 72 h; weighted mean, n ≥ 3; read-out: Mean compound 1 EC50 ± SD. As to the method: as §1
The subject of test [4] is cytosolic T. cruzi malic enzyme (cTcME; C4B63_28g106). The test can be described thus: Thermal proteome profiling, cTcME. The test is classed as binding, Trypanosoma cruzi. To be noted: for ΔTm 1 / ΔTm 2: malic enzyme C4B63_28g106. As to the method: (§2) Aliquots of each lysate were then incubated at designated temperatures (33 to 69°C) and then, for each temperature, insoluble (denatured) proteins were removed. The resulting soluble protein samples were reduced, alkylated, and digested with trypsin prior to derivatization with tandem mass tags. Pooled peptides were fractionated by high-pressure liquid chromatography and analyzed by LC/MS-MS prior to identification and quantitation. The melting points of identified proteins were then established using the TPP software package. Full melt curves were established for 6,771 proteins, representing 39.4% coverage of the T. cruzi proteome.
(§3) T. cruzi (X10/7 strain) mid-log-phase epimastigotes (∼1 × 10^10) were harvested by centrifugation (1,912 × g, 15 min, 4°C) and washed with ice-cold PBS (1,912 × g, 5 min, 4°C); finally, the cell pellet was resuspended in 8 ml of ice-cold lysis buffer (1 mM EDTA, 1 mM dithiothreitol [DTT], 100 μM TLCK [Nα-p-tosyl-L-lysine chloromethyl ketone], and 1× Roche EDTA-free COmplete protease inhibitor cocktail in 50 mM potassium phosphate buffer [pH 7.4]). The cell suspension was submitted to three freeze-thaw cycles in a dry ice/ethanol bath to biologically inactivate the parasites and then submitted to cell disruption (Constant Systems, UK) at 30 kpsi. The resulting lysate was centrifuged (100,000 × g, 20 min, 4°C), the supernatant was collected, and the protein concentration was determined using a Bio-Rad protein assay.
Each 2-ml aliquot (drug and vehicle treated) was divided into 10 × 100-μl aliquots in 0.5-ml thin-walled PCR tubes, followed by incubation at a designated temperature (33, 37, 41, 45, 49, 53, 57, 61, 65, or 69°C) for 3 min, followed in turn by incubation at room temperature for 3 min before each sample was placed on ice. Each aliquot was centrifuged (100,000 × g, 20 min, 4°C), the supernatants were harvested, and the protein concentration was assessed.
All aspects of sample processing, peptide and protein identification and quantitation, and target identification were carried out as previously described ([15]). However, in this instance, proteins were identified by searching the MS and MS/MS data for the peptides against T. cruzi proteome Dm28c 2018 version 50 (https://tritrypdb.org/tritrypdb).

The test system of test [5] is mitochondrial T. cruzi malic enzyme (mTcME). The test can be described thus: Thermal proteome profiling, mTcME. The test is classed as binding, Trypanosoma cruzi. The note with it: lysate, compound at 10× EC50. As to the method: as §2
as §3, with “The cell suspension was submitted to three freeze-thaw cycles in a dry ice/ethanol bath to biologically inactivate the parasites and then submitted to cell disruption (Constant Systems, UK) at 30 kpsi.” left out, “assay. […]” for “assay.”

In test [6] the test system is T. cruzi malic enzyme (cTcME). The test can be described thus: Malic enzyme assay in clarified epimastigote lysates (NADPH production, 340 nm). The test is classed as biochemical, Trypanosoma cruzi. From the text: Malic enzyme (ME) catalyzes the oxidative decarboxylation of malate to pyruvate with the concomitant reduction of NAD(P)^+ to NAD(P)H. In light of our TPP studies, we next sought to determine whether the binding of compound 1 to cTcME inhibits enzymatic activity. The ME-dependent production of NADPH was monitored in clarified lysates of T. cruzi epimastigotes at 340 nm after the addition of malate. In the first instance, this assay was validated using ATR-073, an established inhibitor of cTcME ([27]). […] Similarly, preincubation of lysates with 20 μM and 1 μM concentrations of compound 1 inhibited ME activity by 96 and 68%, respectively (Fig. 4C). […] It should be noted that ATR-073 and compound 1 are structurally similar, both being substituted N-phenyl aryl sulfonamides, this common moiety constituting the pharmacophore of this chemical series.
Logarithmic T. cruzi epimastigotes were harvested (1,690 × g, 10 min, 4°C), washed once in ice-cold phosphate-buffered saline, and resuspended at 2 × 10^9 cells ml^−1 in lysis buffer (10 mM phosphate buffer [pH 7.2], 10 mM EDTA, 5 mM benzamidine, 5 mM phenanthroline, 0.1 mM phenylmethylsulfonyl fluoride) containing 1 mg ml^−1 digitonin, followed by incubation at 28°C for 10 min. The resulting lysate was then centrifuged (13,000 × g, 10 min, 4°C), and the supernatant was harvested and stored on ice. The protein concentration of this clarified lysate was determined by using a standard Bio-Rad protein assay.
The activity of malic enzyme was assayed as previously described ([42]), with minor modifications. T. cruzi clarified lysate (30 μl) was added to a reaction mixture (500 μl final volume) containing 50 mM Tris-HCl buffer (pH 7.6), 1 mM MnCl2, and 0.12 mM NADP^+. Reactions were initiated by the addition of 5 mM L-malate. The reduction of NADP^+ was monitored at 340 nm using a UV-2401 spectrophotometer (Shimadzu). To monitor the effect of test compounds on the activity of malic enzyme, compounds (1 and 20 μM) were preincubated for 10 min with the lysate in the reaction mixture. DMSO (0.2%) was used as control. All enzymatic activities were calculated as Δabs min^−1 mg^−1 of protein.

The test system of test [7] is L. donovani intramacrophage. Further details: method as in Peña et al. (12). To be noted: ref Peña et al. (12), read-out: Mean compound 1 EC50; cited from earlier work.
In test [8] the test system is CYP51. More on the design: method as in PMID 25740547. The note with it: cited from earlier work.

Turning to `COc1ccc(NS(=O)(=O)c2cc(-c3cc(C)n[nH]3)ccc2C)cc1OC` [Compound 1], the EC50 in test [1] is 700 ± 100 nM; in test [2] it was 300 ± 13 nM; in test [3] it was 23 ± 3 µM; in test [7], 8 µM. The “increase in thermal stability of cTcME (mean ΔTm)” value in test [4] (experiment 1, lysate, compound at 10× EC50 (20 μM)) worked out at 8.8 °C. Further, the ΔTm 1 came to 8.6 °C in test [4] (biological replicate 1) and 5.6 °C in test [4] (biological replicate 2). Further, the results for the ΔTm 2 in test [4] (biological replicate 1) and in test [4] (biological replicate 2) were 9.08 °C and 3.73 °C, respectively. The “impact on the thermal stability of mTcME” value in test [5] is given as “no impact”. For the same molecule, the “reduction in ME activity” value in test [6] (preincubation of lysates with 1 μM) amounted to 68%; in test [6] (preincubation of lysates with 20 μM) it was 96%. Moreover, in test [8], the “CYP51 pIC50” value was 4.4.
